The supplement of paper PMC10307832

Key:
Assay in all cases: relative viability (nuclei count vs DMSO), 5 days (fraction); higher = more cells survive
CX-5461 + Trametinib = compound: Cc1cnc(CNC(=O)c2c(=O)c3ccc(N4CCCN(C)CC4)nc3n3c2sc2ccccc23)cn1 [CX-5461] + CC(=O)Nc1cccc(-n2c(=O)n(C3CC3)c(=O)c3c(Nc4ccc(I)cc4F)n(C)c(=O)c(C)c32)c1 [Trametinib] (partner 0.02 µM)
Outline: (§1)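 For relative viability, nuclei counts in treated wells were divided by those in vehicle wells. Lung cancer cell lines had been pin-tool dosed in 1536-well plates the day after seeding and cultured for 5 days, then fixed and stained in one step (final 0.05% Triton X-100, 1% formaldehyde, 1 ug/ml Hoechst) and imaged at 4×. Doses were one drug alone or a fixed anchor-drug dose plus five library-drug doses (not always all listed) in √10 steps, and values are duplicate-plate medians.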

IMD-0354 = compound: O=C(Nc1cc(C(F)(F)F)cc(C(F)(F)F)c1)c1cc(Cl)ccc1O [IMD-0354]
Outline: (§2)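 Viability was defined as treated-well nuclei divided by vehicle-well nuclei, with the median taken over replicate plates. Cells from lung cancer lines sat overnight at 37 °C in 1536-well plates, received five √10-spaced library-drug doses by pinning on vehicle-anchored plates, and grew 5 days without medium change before one-step fixation, permeabilisation and Hoechst staining, 4× imaging and MetaXpress nuclear counts. Only plates with control CV under 25% and at least one doubling were kept.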

CX-5461 = compound: Cc1cnc(CNC(=O)c2c(=O)c3ccc(N4CCCN(C)CC4)nc3n3c2sc2ccccc23)cn1 [CX-5461]
Outline: as §2

IMD-0354 + Navitoclax = compound: O=C(Nc1cc(C(F)(F)F)cc(C(F)(F)F)c1)c1cc(Cl)ccc1O [IMD-0354] + CC1(C)CCC(c2ccc(Cl)cc2)=C(CN2CCN(c3ccc(C(=O)NS(=O)(=O)c4ccc(N[C@H](CCN5CCOCC5)CSc5ccccc5)c(S(=O)(=O)C(F)(F)F)c4)cc3)CC2)C1 [Navitoclax] (partner 0.5 µM)
Outline: as §1

| Cell Line | relative viability (CX-5461 + Trametinib; first compound 0.01 µM) | relative viability (CX-5461 + Trametinib; first compound 0.03162 µM) | relative viability (CX-5461 + Trametinib; first compound 0.1 µM) | relative viability (CX-5461 + Trametinib; first compound 0.3162 µM) | relative viability (CX-5461 + Trametinib; first compound 1 µM) | relative viability (IMD-0354; 0.04 µM) | relative viability (IMD-0354; 0.1265 µM) | relative viability (IMD-0354; 0.4 µM) | relative viability (IMD-0354; 1.265 µM) | relative viability (IMD-0354; 4 µM) | relative viability (CX-5461; 0.01 µM) | relative viability (CX-5461; 0.03162 µM) | relative viability (CX-5461; 0.1 µM) | relative viability (CX-5461; 0.3162 µM) | relative viability (CX-5461; 1 µM) | relative viability (IMD-0354 + Navitoclax; first compound 0.04 µM) | relative viability (IMD-0354 + Navitoclax; first compound 0.1265 µM) | relative viability (IMD-0354 + Navitoclax; first compound 1.265 µM) | relative viability (IMD-0354 + Navitoclax; first compound 4 µM) | relative viability (IMD-0354 + Navitoclax; first compound 0.4 µM) |
| --- | --- | --- | --- | --- | --- | --- | --- | --- | --- | --- | --- | --- | --- | --- | --- | --- | --- | --- | --- | --- |
| NCI-H2342 | 0.787 | 0.81 | 0.832 | 0.871 | 0.918 | 1.03 | 1.05 | 0.764 | 0.633 | 0.476 | 0.997 | 1 | 0.834 | 1.04 | 0.889 | – | – | – | – | – |
| LK-2 | 0.83 | 0.818 | 0.834 | 0.707 | 0.725 | 1.19 | 0.986 | – | 1 | 0.271 | 0.89 | 1.07 | 1.13 | – | 0.783 | 1.15 | 0.812 | 0.777 | 0.247 | – |
| SK-LU-1 | 0.503 | 0.439 | 0.49 | 0.506 | 0.345 | 1.16 | 0.97 | 0.581 | 0.488 | 0.277 | 1.08 | 1.07 | 1.04 | 1.07 | 0.736 | 1.26 | 1.17 | 0.386 | 0.126 | 0.223 |
| HCC-366 | 0.345 | 0.389 | 0.443 | 0.412 | 0.306 | 1.04 | 1.09 | 0.543 | 0.111 | 0.0465 | 1.11 | 1.02 | 1 | 1.02 | 0.322 | 1.03 | 1.17 | 0.27 | 0.0258 | 0.235 |
| 201T | 0.706 | 0.73 | 0.693 | 0.75 | 0.721 | 1.1 | 1.15 | 0.563 | 0.725 | 0.324 | 0.985 | 1 | 0.986 | 0.985 | 0.936 | 1.27 | 1.25 | 1 | 0.752 | 0.77 |
| HCC-827 | 0.509 | 0.583 | 0.617 | 0.494 | 0.582 | 1.06 | 1.05 | 0.736 | 0.439 | 0.258 | 1.02 | 1.02 | 1.03 | 1.01 | 0.933 | 0.983 | 0.955 | 0.759 | 0.293 | 0.892 |
| NCI-H647 | 0.589 | 0.331 | 0.494 | 0.451 | 0.218 | 1.04 | 1.06 | 0.405 | 0.172 | 0.11 | 1.08 | 0.935 | 0.991 | 0.822 | 0.403 | 1.47 | 1.57 | 0.198 | 0.068 | 0.521 |
| NCI-H2023 | 0.54 | 0.564 | – | 0.491 | 0.115 | 1.11 | 0.986 | 0.573 | 0.128 | 0.0998 | 1 | 0.903 | – | 0.648 | 0.0929 | 1.16 | 1.05 | 0.257 | 0.121 | 0.561 |
| NCI-H520 | 0.754 | 0.642 | 0.734 | 0.327 | 0.352 | 1.05 | 0.93 | 0.545 | 0.589 | 0.226 | 1.14 | 1.02 | 1.09 | 0.666 | 0.578 | 1.25 | 0.928 | 0.159 | 0.254 | 0.473 |
| RERF-LC-KJ | 0.853 | 0.908 | 0.694 | 0.89 | 0.644 | 1.09 | 0.992 | 0.635 | 0.384 | 0.234 | 0.96 | 1.05 | 0.943 | 0.946 | 0.879 | 0.843 | 1.1 | 0.109 | 0.228 | 0.496 |
| A-427 | 0.815 | 0.798 | 0.661 | 0.488 | 0.578 | 1.26 | 1.01 | 0.434 | 0.153 | 0.134 | 1.06 | 1.1 | 1.06 | – | 0.748 | 0.989 | 0.983 | 0.546 | 0.115 | 0.654 |
| NCI-H441 | 0.451 | 0.552 | 0.441 | 0.429 | 0.24 | 1.13 | 0.966 | 0.521 | 0.227 | 0.243 | 1.08 | 1.17 | 0.947 | 0.888 | 0.689 | – | 0.473 | 0.164 | 0.217 | 0.38 |
| NCI-H1703 | – | – | – | – | – | 1.11 | 1.02 | 0.507 | 0.282 | 0.14 | 0.955 | 1.06 | 0.91 | 1.09 | 0.569 | 1.37 | 1.12 | 0.131 | 0.115 | 0.843 |
| NCI-H1792 | 0.542 | 0.434 | 0.407 | 0.401 | 0.52 | 0.969 | 0.847 | 0.553 | 0.412 | 0.434 | 1.01 | 0.894 | 0.904 | 1.05 | 0.502 | 0.761 | 0.564 | 0.346 | 0.482 | 1.66 |
